Assay results reported in patent US20260014143A1, “Prostaglandin E synthase 3 (PTGES3) Inhibiting Compounds” (The Regents of the University of California, priority 2022, published 2026).
pEC50: −log10 of the molar value. Entries after “also recorded” stand apart in the source; their conditions may differ.

Experiments:
[1] = system: cysteine 76 of cyslite PTGES3; experiment: Labeling of cysteine 76 of cyslite PTGES3 at 100 uM compound; type: binding
Description: (§1) Compounds were tested at 100 uM for the ability to label cysteine 76 of cyslite PTGES3. In some cases labeling was not detected. Cyslite PTGES3 was then fully labeled with the compounds and the thermal shift values of the fully labeled protein was determined with stabilization values indicated below. […] Finally, select compounds were tested to determine if they inhibited cell growth in AR+LNCaP cells.

[2] = system: AR+ LNCaP cells; experiment: Cell growth of AR+ LNCaP cells; type: cell-based
Description: (§2) Normalized to DMSO and analyzed by IncuCyte system (n=3 as biological replicates; Mean±SEM).
as §1
LNCaP cell lines were grown in the RPMI 1640 medium (Gibco) supplemented with 10% fetal bovine serum (FBS; Gibco). Cells were grown in a humidified 5% CO2 incubator at 37° C.

[3] = system: Recombinant CysLite PTGES3; experiment: Differential scanning fluorimetry (thermal shift) of fully labeled CysLite PTGES3; type: binding; details: cyslite PTGES3 fully labeled with compound
Description: Recombinant […] PTGES3 at a concentration of 8 μM in 50 mM HEPES pH 7.5, 150 mM NaCl were incubated with compounds or DMSO for unlabeled comparisons, at ambient temperature until complete labeling was observed by intact protein mass spectrometry. 7K Zeba Desalting columns (ThermoFisher) were used to remove excess compound. The Zeba 7K columns were first preequilibrated with 50 mM HEPES (pH 7.5), 150 mM NaCl. Sypro Orange (500x, DMSO) was added to the purified protein-small molecule conjugates to a final concentration of 5x Sypro Orange. These DSF assays were performed in triplicate in white 96-well plates. The plate was sealed with optically clear PCR sealing film (USA Scientific). The thermal shift assay was performed on a Bio-Rad CFX qPCR instrument. The temperature was increased from 23° C. to 95° C. at a rate of 0.5° C./s. After each temperature step, fluorescence was monitored with an excitation of 492 nm and emission of 610 nm. Raw fluorescence values were normalized between 0 and 1 and fit to a Boltzman equation using GraphPad Prism with the maximum value of the fit constrained to 1.

[4] = system: PTGES3-AR interaction; experiment: Far western blot of AR-PTGES3 interaction; type: biochemical; details: CysLite PTGES3 pre-modified with compound
Description: Flag-AR was loaded on a gel, transferred to membrane, and renatured. The membranes were incubated with recombinant CysLite PTGES3 protein or recombinant CysLite PTGES3 protein labeled with 1. The interaction was detected with PTGES3 antibody. […] Each blot experiment was performed twice to determine reproducibility.

[5] = target: T1, Recombinant CysLite PTGES3 (cysteine 76) (Homo sapiens, UniProt Q15185); experiment: Dose response assay: labeling of recombinant CysLite PTGES3 by intact protein mass spectrometry; type: binding; details: 100 uM BME, 1 μM protein, 1 h ambient temperature; read-out: EC50 with 100 uM BME competitor (half maximal labeling of cyslite PTGES3)
T1 sequence (Q15185 1-160): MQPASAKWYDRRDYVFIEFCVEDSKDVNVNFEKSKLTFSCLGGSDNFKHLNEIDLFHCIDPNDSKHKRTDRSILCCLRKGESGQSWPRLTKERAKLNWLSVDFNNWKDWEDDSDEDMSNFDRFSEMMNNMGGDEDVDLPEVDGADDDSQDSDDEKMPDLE
Description: Recombinant CysLite PTGES3 (1 μM, 50 mM Tris-HCl, pH 8.0, 150 mM NaCl and 100 μM βME) were incubated for 1 h at ambient temperature with lead fragments (4% DMSO) in a 7-, 8- or 9-point threefold serial dilution series in duplicate. Reactions were quenched by the addition of formic acid to a final concentration of 0.4%. Labeling was determined by intact protein mass spectrometry.

[6] = system: PTGES3 enhanced AR/ARE binding; experiment: AR/ARE gel shift (EMSA) assay; type: biochemical; details: DHT+ buffer, free ARE DNA detected by SYBR gold
Description: The reactions were then loaded on a DNA retardation gel. ARE DNA bands were detected by SYBR gold. […] Experiment was performed twice to determine reproducibility.
Electrophoretic mobility shift assays (EMSA) were performed using recombinant AR protein (EMD Millipore) and 3×ARE dsDNA from the ARR3TK plasmid. Protein-DNA complexes were allowed to incubate in room temperature for 30 min in loading buffer (20 mM HEPES, 100 mM KCl, 2 ng/ml poly(dI-dC), 10% glycerol, and 20 nM DHT), followed by electrophoresis on 6% DNA Retardation Gels in TBE buffer (PH 8.0). Visualization of protein-DNA complexes was performed with SYBR Gold DNA staining dye (Invitrogen).

[7] = system: Recombinant CysLite PTGES3; experiment: BME competition assay: labeling of CysLite PTGES3 at high BME competitor; type: binding; details: 200 uM compound
Description: Recombinant CysLite PTGES3 (1 μM, 50 mM Tris-HCl, pH 8.0, 150 mM NaCl) were incubated with 200 μM fragment (2% DMSO) and 500 μM or 1 mM BME at ambient temperature for 8 h. Reactions were quenched by the addition of formic acid to a final concentration of 0.4%. Labeling was determined by intact protein mass spectrometry.

[8] = system: AR protein levels, LNCaP cells; experiment: AR protein levels in LNCaP cells by western blotting; type: cell-based; details: 100 μM, 48 h, nuclear AR, western blot
Description: Nuclear AR and TBP levels were detected by western blotting. Each western blot experiment was performed twice to determine reproducibility.

[9] = system: AR target genes, LNCaP cells; experiment: AR target gene mRNA levels in LNCaP cells by real-time PCR; type: cell-based; details: 100 μM, 48 h, mRNA over 18s rRNA
Description: RNA was collected, indicated genes mRNA levels over 18s rRNA were measured by real-time PCR (n=3 as biological replicates; Mean±SEM).

[10] = system: AR-independent PC3 cells; experiment: Cell growth of AR-independent PC3 cells; type: cell-based
Description: as §2
Fold change of cell count normalized over day 0 was analyzed by IncuCyte system (n=3 as biological replicates; Mean SEM). Unpaired two-tailed t-test was used to determine statistical significance (ns=no significant difference; *** P<0.001).

[11] = Parallel artificial membrane permeability assay (PAMPA); type: in vitro ADME

Compound	4 h labeling (100 uM) [1]	24 h labeling (100 uM) [1]	Thermal Shift (Cyslite PTGES3) ΔTm [3]	other results
C=CS(=O)(=O)N[C@@H]1CN(C(=O)c2ccc(S(N)(=O)=O)c(F)c2)C[C@H]1c1ccccc1 [Compound 9]	12.38%	51.4%	ΔTm + 3.3 °C	Cell activity (inhibited cell growth in AR+ LNCaP cells) [2]: Yes
C=CS(=O)(=O)N[C@@H]1CN(C(=O)c2ccc(S(=O)(=O)NC)cc2)C[C@H]1c1ccccc1 [Compound 7]	7.21%	36.40%	ΔTm + 2.1 C. ° C.	–
C=CS(=O)(=O)N1CCN(C(=O)[C@@H]2CN(C(=O)c3ccc(S(N)(=O)=O)c(F)c3)C[C@H]2c2ccccc2)CC1 [Compound 12]	6.27%	36.65%	No stabilization	–
CN(C)CCSSCCNC(=O)[C@@H]1CN(C(=O)c2cc(F)c(O)c(Cl)c2)C[C@H]1c1ccccc1 (racemic) [Compound 1]	–	–	confirmed by DSF to stabilize CysLite PTGES3	PTGES3-AR interaction (far western blot) [4]: ablated in vitro PTGES3-AR interaction; also recorded: disrupted the PTGS3-AR interaction; pEC50 [5]: 4.15; Thermal Shift (Cyslite PTGES3) ΔTm ([3]; listed as compound 1): 1.6 °C; PTGES3 enhanced AR/ARE binding (gel shift) [6]: inhibited PTGES3 enhanced AR/ARE binding; also recorded: increases the free ARE levels; % Labeling in presence of 500 uM BME competitor ([7]; 500 uM BME): 79.03%; % Labeling in presence of 1 mM BME competitor ([7]; 1 mM BME): 76.67%
C=CS(=O)(=O)N[C@@H]1CN(C(=O)c2ccc(O)cc2)C[C@H]1c1ccccc1 [Compound 5]	4.71%	35.51%	–	–
CN(C)CCSSCCNC(=O)[C@@H]1CN(C(=O)c2cc(F)c(O)c(Cl)c2)C[C@H]1c1ccccc1 [Compound 994364]	–	–	increases the thermal melt temperature	–
C=CS(=O)(=O)N[C@@H]1CN(C(=O)c2cc(F)cc(Cl)c2)C[C@H]1c1ccccc1 [Compound 8]	Not detected	14.74%	–	–
C=CS(=O)(=O)N[C@@H]1CN(C(=O)c2ccc(S(N)(=O)=O)cc2)C[C@H]1c1ccccc1 [Compound 6]	9.61%	44.20%	ΔTm + 3.0 °C	Cell activity (inhibited cell growth in AR+ LNCaP cells) [2]: Yes
C=CS(=O)(=O)NCCNC(=O)[C@@H]1CN(C(=O)c2ccc(S(N)(=O)=O)c(F)c2)C[C@H]1c1ccccc1 [Compound 13]	Not detected	13.63%	No stabilization	–
C=CS(=O)(=O)N[C@@H]1CN(C(=O)c2ccc(S(N)(=O)=O)c(Cl)c2)C[C@H]1c1ccccc1 [Compound 10]	Not detected	27.44%	ΔTm + 3.3 °C	–
C=CS(=O)(=O)N[C@@H]1CN(C(=O)c2ccccc2)C[C@H]1c1ccccc1 [Compound 4]	4.01%	20.75%	ΔTm + 1.9 °C	–
C=CS(=O)(=O)N[C@@H]1CN(C(=O)c2cccc(S(N)(=O)=O)c2)C[C@H]1c1ccccc1 [Compound 11]	17.84%	72.62%	ΔTm + 0.4 °C	Cell activity (inhibited cell growth in AR+ LNCaP cells) [2]: Yes
COC(=O)[C@@H]1CN(C(=O)c2cc(F)c(O)c(Cl)c2)C[C@H]1c1ccccc1 (racemic) [Compound 2]	–	–	–	AR protein levels [8]: significantly reduced; Expression of AR target genes [9]: significantly reduced; AR + cell line activity (growth of AR-driven LNCaP cells) [2]: significantly reduced and inhibit cell proliferation in AR+ and Yes; Growth of AR-independent PC3 (AR−) cells [10]: not AR-independent PC3 cells; also recorded: not AR− negative cell lines; PAMPA assay [11]: Permeable
C=CS(=O)(=O)N[C@@H]1CN(C(=O)c2cc(F)c(O)c(Cl)c2)C[C@H]1c1ccccc1 [Compound 3]	5.27%	28.15%	ΔTm + 3.3 °C	–
C=CS(=O)(=O)NC1CN(C(=O)[C@@H]2CN(C(=O)c3ccc(S(N)(=O)=O)c(F)c3)C[C@H]2c2ccccc2)C1 [Compound 14]	7.18%	48.46%	No stabilization	Cell activity (inhibited cell growth in AR+ LNCaP cells) [2]: No
